Assay results published in patent EP4692091A1, “CA[…], AND PHARMACEUTICAL COMPOSITION, PREPARATION METHOD THEREFOR AND USE THEREOF” (Changchun Genescience Pharmaceutical Co., Ltd., priority 2023, dated 2024).

Assays:
[1] = system: MDA-MB-468; assay: Inhibition of proliferation of MDA-MB-468 cells by test compounds (CellTiter-Glo, 72 h); type: cell-based; conditions: MDA-MB-468, 72 h incubation
Description: 3: Test method • (1) Cell plating: first, tumor cells MDA-MB-468 were cultured using a corresponding culture medium, trypsinized, centrifuged, resuspended for counting, adjusted to an appropriate concentration, and then plated on a 384-well plate. • (2) Co-incubation of the compounds and tumor cells: after the cells adhered to the wall, 100 nL of a diluted bioactive substance (test compound) was added to the cell culture plate using ECHO, the final concentration of DMSO in wells of the cell plate was 0.33%, and the incubation was performed in an incubator at 37°C with […] for 72 h. • (3) After the incubation was complete, 30 µL of a CTG reagent (CelltiterGlo kit) was added to each well. The culture was oscillated on a fast oscillator for 2 min, centrifuged at 1,000 rpm for 1 min, and kept away from light at room temperature for 30 min. The chemiluminescence signal value was read using an Envision instrument. • (4) Cell viability detection: IC50 was calculated using GraphPad Prism 8 software, and the IC50 of the compounds was obtained using the following nonlinear fitting formula (see Table 2): • 6. Y=Bottom+(Top-Bottom)/(1+10^((LogIC50-X)*HillSlope)) • 7. […] Table 2 Antiproliferative activity of test compounds on MDA-MB-468

[2] = Stability of compounds in human plasma; type: in vitro ADME; conditions: 37°C, 5 µmol/L; for Residual percentage (%): 0 h; for remaining at 1 h, 5 µM / remaining at 2 h, 5 µM / remaining at 6 h, 5 µM / remaining at 24 h, 5 µM: read-out: Residual percentage (%)
Description: • (1) 199 µL of human plasma was added to the culture plate of each cell. The culture plate was preheated to 37°C, and kept at this temperature for 15 min. • (2) After preincubation, 1 µL of 1 mmol/L each test compound and 1 µL of 1 mmol/L control compound were added to 199 µL of plasma, so that a final concentration of each test compound was 5 µmol/L and that of the control compound was 5 µmol/L. The final concentration of the organic solvent was 0.5%. The experiment would be duplicated twice. • (3) Reaction samples were incubated at 37°C. • (4) The reaction was stopped by adding 600 µL of cold methanol containing the internal standard at 0, 1, 2, 6, and 24 h. Each sample was vortex mixed for 10 min, and then centrifuged at 3,220 g for 30 min to precipitate the protein. […] Based on the signal response and peak shapes of liquid chromatography-mass spectrometry (LC-MS), the supernatant would be diluted with ultrapure water.
All calculations were performed using Microsoft Excel. The peak area ratio was determined from the chromatogram of extracted ions. The percentage of compounds remaining at each time point was calculated as per the following formula: Residual percentagetmin (%) = peak area ratiotmin /peak areat0 × 100 [formula]

[3] = system: SK-BR-3; assay: Inhibition of proliferation of SK-BR-3 cells by compounds (CellTiter-Glo, 72 h); type: cell-based; conditions: SK-BR-3, 72 h incubation
Description: 3: Test method (1) Cell plating: first, tumor cells SK-BR-3 were cultured using a corresponding culture medium, trypsinized, centrifuged, resuspended for counting, adjusted to an appropriate concentration, and then plated on a 384-well plate. (2) Co-incubation of the compounds and tumor cells: after the cells adhered to the wall, 100 nL of a diluted bioactive substance (test compound) was added to the cell culture plate using ECHO, the final concentration of DMSO in wells of the cell plate was 0.33%, and the incubation was performed in an incubator at 37°C with 5% CO2 for 72 h. (3) After the incubation was complete, 30 µL of a CTG reagent (CelltiterGlo kit) was added to each well. The culture was oscillated on a fast oscillator for 2 min, centrifuged at 1,000 rpm for 1 min, and kept away from light at room temperature for 30 min. The chemiluminescence signal value was read using an Envision instrument. (4) Cell viability detection: IC50 was calculated using GraphPad Prism 8 software, and the IC50 of the compounds was obtained using the following nonlinear fitting formula (see Table 1) : 1. Y=Bottom+(Top-Bottom)/(1+10^((LogIC50-X)*HillSlope)) 2. […] Table 1 Antiproliferative activity of test compounds on SK-BR-3

[4] = system: NCI-N87; assay: Inhibition of proliferation of NCI-N87 cells by test compounds (CellTiter-Glo, 72 h); type: cell-based; conditions: NCI-N87, 72 h incubation
Description: 3: Test method (1) Cell plating: first, tumor cells NCI-N87 were cultured using a corresponding culture medium, trypsinized, centrifuged, resuspended for counting, adjusted to an appropriate concentration, and then plated on a 384-well plate. (2) Co-incubation of the compounds and tumor cells: after the cells adhered to the wall, 100 nL of a diluted bioactive substance (test compound) was added to the cell culture plate using ECHO, the final concentration of DMSO in wells of the cell plate was 0.33%, and the incubation was performed in an incubator at 37°C with […] for 72 h. (3) After the incubation was complete, 30 µL of a CTG reagent (CelltiterGlo kit) was added to each well. The culture was oscillated on a fast oscillator for 2 min, centrifuged at 1,000 rpm for 1 min, and kept away from light at room temperature for 30 min. The chemiluminescence signal value was read using an Envision instrument. (4) Cell viability detection: IC50 was calculated using GraphPad Prism 8 software, and the IC50 of the compounds was obtained using the following nonlinear fitting formula (see Table 3) : 11. Y=Bottom+(Top-Bottom)/(1+10^((LogIC50-X)*HillSlope)) 12. […] Table 3 Antiproliferative activity of test compounds on cells NCI-N87

[5] = Stability of compounds in human plasma; type: in vitro ADME; conditions: 37°C, 5 µmol/L, read-out: Residual percentage (%)

| Molecule | IC50 ([1]; Homo sapiens, MDA-MB-468, 72 h) [nM] | Residual percentage (%) [2] [%] | remaining at 1 h, 5 µM [2] [%] | remaining at 2 h, 5 µM [2] [%] | remaining at 6 h, 5 µM [2] [%] | remaining at 24 h, 5 µM [2] [%] | IC50 ([3]; Homo sapiens, SK-BR-3, 72 h) [nM] | IC50 ([4]; Homo sapiens, NCI-N87, 72 h) [nM] | remaining at 4 h, 5 µM [5] [%] | IC50 [1] [nM] | IC50 [3] [nM] | IC50 [4] [nM] |
| --- | --- | --- | --- | --- | --- | --- | --- | --- | --- | --- | --- | --- |
| CC[C@@]1(O)C(=O)OCc2c1cc1n(c2=O)Cc2c-1nc1cc(F)c(C)c3c1c2C(NC(=O)C[C@@H](C)O)CCC3 (single isomer, unassigned) [6-2] | 6.5 | 100.00 | 96.6 | 86.2 | 89 | 87 | 7.3 | 6.8 | 93.7 |  |  |  |
| CC[C@@]1(O)C(=O)OCc2c1cc1n(c2=O)Cc2c-1nc1cc(F)c(C3CC3)c3c1c2C(NC(=O)C[C@@H](C)O)CC3 (single isomer, unassigned) [17-2] |  | 100.00 | 90.1 | 89.3 | 97.1 | 102 |  |  | 93.8 | 8.1 | 6.6 | 5.3 |
| CC[C@@]1(O)C(=O)OCc2c1cc1n(c2=O)Cc2c-1nc1cc(F)c(C)c3c1c2[C@@H](NC(=O)[C@@H](O)C1CC1)CCC3 [11-2, (S)-2-cyclopropyl-N-((1S,10S)-10-ethyl-6-fluoro-10-hydroxy-5-methyl-11,14-dioxo-1,2,3,4,10,11,14,16-octahydro-13H-cyclohepta[de]pyrano[3',4':6,7]indolizino[1,2-b]quinolin-1-yl)-2-hydroxyacetamide] |  | 100.00 | 96.8 | 92.1 | 94.5 | 88.8 |  |  | 93.4 |  |  |  |
| CC[C@@]1(O)C(=O)OCc2c1cc1n(c2=O)Cc2c-1nc1cc(F)c(C)c3c1c2[C@@H](NC(=O)C[C@@H](O)C(C)C)CCC3 [37-2, (R)-N-((1S,10S)-10-ethyl-6-fluoro-10-hydroxy-5-methyl-11,14-dioxo-1,2,3,4,10,11,14,16-octahydro-13H-cyclohepta[3',4':6,7]indolizino[1,2-b]quinolin-1-yl)-3-hydroxy-4-methylpentanamide] |  |  |  |  |  |  |  |  |  | 6.6 | 6.6 | 3.2 |
| (R)-2-cyclopropyl-N-((1S,10S)-5-cyclopropyl-10-ethyl-6-fluoro-10-hydroxy-11,14-dioxo-1,2,3,4,10,11,14,16-octahydro-13H-cyclohepta[3',4':6,7]indolizino[1,2-b]quinolin-1-yl)-2-hydroxyacetamide [33-1] |  |  |  |  |  |  |  |  |  | 6 | 7.8 | 8 |
| (R)-3-cyclopropyl-N-((1S,10S)-10-ethyl-6-fluoro-10-hydroxy-5-methyl-11,14-dioxo-1,2,3,4,10,11,14,16-octahydro-13H-cyclohepta[3',4':6,7]indolizino[1,2-b]quinolin-1-yl)-3-hydroxypropanamide [38-1] |  |  |  |  |  |  |  |  |  | 13 | 12 | 7.5 |
| (S)-2-cyclopropyl-N-((1S,10S)-5-cyclopropyl-10-ethyl-6-fluoro-10-hydroxy-11,14-dioxo-1,2,3,4,10,11,14,16-octahydro-13H-cyclohepta[3',4':6,7]indolizino[1,2-b]quinolin-1-yl)-2-hydroxyacetamide [33-2] |  |  |  |  |  |  |  |  |  | 5 | 8.4 | 9 |
| (S)-3-cyclopropyl-N-((1S,9S)-4-cyclopropyl-9-ethyl-5-fluoro-9-hydroxy-10,13-dioxo-2,3,9,10,13,15-hexahydro-1H,12H-benzo[d]pyrano[3',4':6,7]indolizino[1,2-b]quinolin-1-yl)-3-hydroxypropanamide [34-1] |  |  |  |  |  |  |  |  |  | 4 | 5.1 | 6 |
| (S)-3-cyclopropyl-N-((1S,10S)-10-ethyl-6-fluoro-10-hydroxy-5-methyl-11,14-dioxo-1,2,3,4,10,11,14,16-octahydro-13H-cyclohepta[3',4':6,7]indolizino[1,2-b]quinolin-1-yl)-3-hydroxypropanamide [38-2] |  |  |  |  |  |  |  |  |  | 5.7 | 5.4 | 2.9 |
| (S)-N-((1S,10S)-10-ethyl-6-fluoro-10-hydroxy-5-methyl-11,14-dioxo-1,2,3,4,10,11,14,16-octahydro-13H-cyclohepta[3',4':6,7]indolizino[1,2-b]quinolin-1-yl)-3-hydroxy-4-methylpentanamide [37-1] |  |  |  |  |  |  |  |  |  | 19 | 19 | 8.6 |
